Tests used:
BT-474 cells = assay: BT-474 Cell Growth Inhibition Test (SRB Assay); type: cell-based, human; details: Homo sapiens, 70 h incubation; for inhibition at 1 µM: BT-474, 70 h, compound 1 μM, read-out: Growth Inhibition Ratio (%)
Procedure, shortened: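 Human breast tumour BT-474 cells (1×10^5/ml seeding, overnight) exposed to compound 70 h at 37 °C, 5% CO2; TCA-fixed, SRB-stained, dye dissolved in 10 mM Tris and OD read at 570 nm. Inhibition ratio = (PC−n)/(PC−NC)×100%; IC50 is the concentration giving 50% inhibition, from fitted curves.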

A549 cells = assay: A549 Cell Growth Inhibition Test (MTT Assay); type: cell-based; details: Homo sapiens, 72 h incubation
Procedure, shortened: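 Human lung cancer A549 cells, seeded at 2500 cells per well, were exposed to compound for 72 h at 37° C., 5% CO2. Viability by MTT (0.5 mg/ml, 3 h), DMSO-dissolved, OD at 490 nm; IC50 fitted from inhibition ratio relative to controls.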

LoVo cells = assay: LoVo Cell Growth Inhibition Test (MTT Assay); type: cell-based; details: Homo sapiens, 72 h incubation
Description: LoVo Cell Growth Inhibition Test (MTT Assay)
1. Cell strains: LoVo (human intestinal cancer cell strains);
(§1) 1. A plate (10 cm) of cells in logarithmic growth phase normally cultured was collected;
2. The culture solution was sucked out. The plate was washed with 5 ml of PBS 1-2 times;
3. PBS was sucked out. 2 ml of 0.25% pancreatin was added to infiltrate the cells for 1 min;
4. The pancreatin was sucked out. The culture plate was placed in an incubator. Digestion was carried out for about 4 min at 37° C.;
5. 4 ml of complete culture solution was added in the culture plate to stop the digestion. The cells were carefully scoured with micropipette (1 ml) to give a uniform cell suspension. The suspension was implanted into a 96-well cell culture plate by 3000-4000 cells/100 μl per well. The culture plate was incubated overnight under 5% CO2 at 37° C. In day 2, 100 μl of culture solution comprising a compound was added into each well, and further incubated for 72 h under 5% CO2 at 37° C.
(§2) 6. The culture solution was sucked out;
7. 100 μl of serum-free culture solution containing 0.5 mg/ml MTT was added in each well, and incubated for 4 h;
(§3) 8. The culture solution was carefully sucked out;
9. 100 μl of DMSO was added in each well and vibrated to dissolve;
(§4) 10. OD values were determined at 490 nM.
1. Calculation of Relative Inhibition Ratio The inhibition ratio of a compound on cell growth=(PC−n)/(PC−NC)×100%
(§5) IC50: Concentration of a compound where inhibition ratio was 50%. IC50 values were fitted with Origin7.5.

NCI-N87 cells = assay: NCI-N87 Cell Growth Inhibition Test (MTT Assay); type: cell-based; details: Homo sapiens, 72 h incubation
Description: NCI-N87 Cell Growth Inhibition Test (MTT Assay)
1. Cell strains: NCI-N87 (human gastric carcinoma cell strains);
as §1
2. The culture solution was sucked out. The plate was washed wtih 5 ml of PBS 1-2 times;
3. PBS was sucked out. 1.5 ml of 0.25% pancreatin was added to infiltrate the cells for 1 min;
4. The pancreatin was sucked out. The culture plate was placed in an incubator. Digestion was carried out for about 12 min at 37° C.;
5. 4.5 ml of complete culture solution was added to the culture plate to stop the digestion. The cells were carefully scoured with micropipette (1 ml) to give a uniform cell suspension. The suspension was implanted into a 96-well cell culture disc by 17000 cells/100 μl per well. The culture plate was incubated overnight under 5% CO2 at 37° C. In day 2, 100 μl of culture solution comprising a compound was added in each well, and further incubated for 72 h under 5% CO2 at 37° C.
as §2
7. 100 μl of serum-free culture solution containing 0.5 mg/ml MTT was added in each well, and incubated for 3 h;
as §3
9. 100 μl of DMSO was added in each welland vibrated to dissolve;
as §4
1. Calculation of Rrelative Inhibition Ratio The inhibition ratio of a compound on cell growth=(PC−n)/(PC−NC)×100%
as §5

Structure (SMILES): Cc1ccc(COc2ccc(Nc3c(C#N)cnc4cc(OC5CCOC5)c(NC(=O)/C=C/CN(C)C)cc34)cc2Cl)cc1 (centres unmarked) [Example 19, (E)-N-(4-(4-(4-METHYLBENZYLOXY)-3-CHLOROPHENYLAMINO)-3-CYANO-7-(TETRAHYDROFURAN-3-YL-OXY)QUINOLIN-6-YL)-4-(DIMETHYLAMINO)-BUT-2-ENAMIDE]
- IC50 (BT-474 cells): 32 nM
- IC50 (A549 cells): 2000 nM
- IC50 (LoVo cells): 2000 nM
- IC50 (NCI-N87 cells): 32 nM

Structure (SMILES): CN(C)C/C=C/C(=O)Nc1cc2c(Nc3ccc(OCc4ccccn4)c(Cl)c3)c(C#N)cnc2cc1OC1CCOC1 (centres unmarked) [Example 21, (E)-N-(4-(3-CHLORO-4-(PYRIDIN-2-YL-METHOXY)PHENYLAMINO)-3-CYANO-7-(TETRAHYDROFURAN-3-YL-OXY)QUINOLIN-6-YL)-4-(DIMETHYLAMINO)-BUT-2-ENAMIDE]
- IC50 (BT-474 cells): 3.6 nM
- IC50 (A549 cells): 900 nM
- IC50 (LoVo cells): 2000 nM
- IC50 (NCI-N87 cells): 6.8 nM

Structure (SMILES): CN(C)C/C=C/C(=O)Nc1cc2c(Nc3ccc(OCc4ccccn4)c(Cl)c3)c(C#N)cnc2cc1O[C@H]1CCOC1 [Example 138, (S,E)-N-(4-(3-CHLORO-4-(PYRIDIN-2-YL-METHOXY)PHENYLAMINO)-3-CYANO-7-(TETRAHYDROFURAN-3-YL-OXY)QUINOLIN-6-YL)-4-(DIMETHYLAMINO)-BUT-2-ENAMIDE]
- IC50 (BT-474 cells): 3 nM
- inhibition at 1 µM (BT-474 cells): 82%
- IC50 (A549 cells): 1500 nM
- IC50 (LoVo cells): 2100 nM
- IC50 (NCI-N87 cells): 4.4 nM

Structure (SMILES): CN(C)C/C=C/C(=O)Nc1cc2c(Nc3ccc(OCc4ccccn4)c(Cl)c3)c(C#N)cnc2cc1O[C@@H]1CCOC1 [Example 139, (R,E)-N-(4-(3-CHLORO-4-(PYRIDIN-2-YL-METHOXY)PHENYLAMINO)-3-CYANO-7-(TETRAHYDROFURAN-3-YL-OXY)QUINOLIN-6-YL)-4-(DIMETHYLAMINO)-BUT-2-ENAMIDE]
- IC50 (BT-474 cells): 3.9 nM
- inhibition at 1 µM (BT-474 cells): 81%
- IC50 (A549 cells): 600 nM
- IC50 (LoVo cells): 2200 nM
- IC50 (NCI-N87 cells): 7.2 nM

Structure (SMILES): C#Cc1cccc(Nc2c(C#N)cnc3cc(O[C@H]4CCOC4)c(NC(=O)/C=C/CN(C)C)cc23)c1 [Example 140, (S,E)-N-(3-CYANO-4-(3-ETHYNYLPHENYLAMINO)-7-(TETRAHYDROFURAN-3-YL-OXY)QUINOLIN-6-YL)-4-(DIMETHYLAMINO)-BUT-2-ENAMIDE]
- IC50 (BT-474 cells): 33 nM
- inhibition at 1 µM (BT-474 cells): 85%
- IC50 (A549 cells): 1600 nM
- IC50 (LoVo cells): 8800 nM
- IC50 (NCI-N87 cells): 15 nM

Structure (SMILES): C#Cc1cccc(Nc2c(C#N)cnc3cc(O[C@@H]4CCOC4)c(NC(=O)/C=C/CN(C)C)cc23)c1 [Example 141, (R,E)-N-(3-CYANO-4-(3-ETHYNYLPHENYLAMINO)-7-(TETRAHYDROFURAN-3-YL-OXY)QUINOLIN-6-YL)-4-(DIMETHYLAMINO)-BUT-2-ENAMIDE]
- IC50 (BT-474 cells): 96 nM
- inhibition at 1 µM (BT-474 cells): 89%
- IC50 (A549 cells): 800 nM
- IC50 (LoVo cells): 7630 nM
- IC50 (NCI-N87 cells): 32 nM

Structure (SMILES): CN(C)C/C=C/C(=O)Nc1cc2c(Nc3ccc(F)c(Cl)c3)c(C#N)cnc2cc1O[C@H]1CCOC1 [Example 142, (S,E)-N-(4-(3-CHLORO-4-FLUOROPHENYLAMINO)-3-CYANO-7-(TETRAHYDROFURAN-3-YL-OXY)QUINOLIN-6-YL)-4-(DIMETHYLAMINO)-BUT-2-ENAMIDE]
- IC50 (BT-474 cells): 133 nM
- inhibition at 1 µM (BT-474 cells): 89%
- IC50 (A549 cells): 1500 nM
- IC50 (LoVo cells): 8830 nM
- IC50 (NCI-N87 cells): 75 nM

Structure (SMILES): C#Cc1cccc(Nc2c(C#N)cnc3cc(O[C@H]4CCOC4)c(NC(=O)/C=C/CN(CC)CC)cc23)c1 [Example 143, (S,E)-N-(3-CYANO-4-(3-ETHYNYLPHENYLAMINO)-7-(TETRAHYDROFURAN-3-YL-OXY)QUINOLIN-6-YL)-4-(DIETHYLAMINO)-BUT-2-ENAMIDE]
- IC50 (BT-474 cells): 149 nM
- inhibition at 1 µM (BT-474 cells): 87%
- IC50 (A549 cells): 1500 nM
- IC50 (LoVo cells): 7500 nM
- IC50 (NCI-N87 cells): 89 nM

Structure (SMILES): C#Cc1cccc(Nc2c(C#N)cnc3cc(O[C@H]4CCOC4)c(NC(=O)/C=C/CN4CCCCC4)cc23)c1 [Example 144, (S,E)-N-(3-CYANO-4-(3-ETHYNYLPHENYLAMINO)-7-(TETRAHYDROFURAN-3-YL-OXY)QUINOLIN-6-YL)-4-(PIPERIDIN-1-YL)-BUT-2-ENAMIDE]
- IC50 (BT-474 cells): 129 nM
- IC50 (A549 cells): 1000 nM
- IC50 (LoVo cells): 3300 nM
- IC50 (NCI-N87 cells): 98 nM

Structure (SMILES): CCN(CC)C/C=C/C(=O)Nc1cc2c(Nc3ccc(OCc4ccccn4)c(Cl)c3)c(C#N)cnc2cc1O[C@H]1CCOC1 [Example 150, (S,E)-N-(4-(3-CHLORO-4-(PYRIDIN-2-YL-METHOXY)PHENYLAMINO)-3-CYANO-7-(TETRAHYDROFURAN-3-YL-OXY)QUINOLIN-6-YL)-4-(DIETHYLAMINO)-BUT-2-ENAMIDE]
- IC50 (BT-474 cells): 4.9 nM
- inhibition at 1 µM (BT-474 cells): 82%
- IC50 (A549 cells): 3800 nM
- IC50 (LoVo cells): 2200 nM
- IC50 (NCI-N87 cells): 6.6 nM

Structure (SMILES): N#Cc1cnc2cc(O[C@H]3CCOC3)c(NC(=O)/C=C/CN3CCCCC3)cc2c1Nc1ccc(OCc2ccccn2)c(Cl)c1 [Example 151, (S,E)-N-(4-(3-CHLORO-4-(PYRIDIN-2-YL-METHOXY)PHENYLAMINO)-3-CYANO-7-(TETRAHYDROFURAN-3-YL-OXY)QUINOLIN-6-YL)-4-(PIPERIDIN-1-YL)-BUT-2-ENAMIDE]
- IC50 (BT-474 cells): 6.5 nM
- inhibition at 1 µM (BT-474 cells): 80%
- IC50 (A549 cells): 3700 nM
- IC50 (LoVo cells): 1900 nM
- IC50 (NCI-N87 cells): 16 nM

Structure (SMILES): CC(C)(C)NC/C=C/C(=O)Nc1cc2c(Nc3ccc(OCc4ccccn4)c(Cl)c3)c(C#N)cnc2cc1O[C@H]1CCOC1 [Example 153, (S,E)-N-(4-(3-CHLORO-4-(PYRIDIN-2-YL-METHOXY)PHENYLAMINO)-3-CYANO-7-(TETRAHYDROFURAN-3-YL-OXY)QUINOLIN-6-YL)-4-(TERT-BUTYLAMINO)-BUT-2-ENAMIDE]
- IC50 (BT-474 cells): 7.2 nM
- IC50 (A549 cells): 6400 nM
- IC50 (LoVo cells): 5600 nM
- IC50 (NCI-N87 cells): 15 nM
